Laboratory results from US6075121A, “Modified peptide and peptide libraries with protease resistance, derivatives thereof and methods of producing and screening such” (Chiron Corporation, priority 1995, dated 2000).
Residues, ends and D or L forms follow the SMILES beside them. *: point of attachment. Fmoc = O=C(OCC1c2ccccc2-c2ccccc21)*

Legend:
[1] = test system: antiserum S259-6 (epitope DFLEKI); assay: Antibody binding of peptides and peptoids on pins, serum S259-6; parameters: key: A `P` represents a peptide sequence which gave the highest 6-8 signals; a `*` represents a peptoid sequence which scored in the top 6-10; conditions: serum S259-6, epitope DFLEKI
Description: (§1) Peptoids and peptides were prepared on the pins and tested under standard conditions. The assay is best interpreted qualitatively, and the chart below gives a summary of data from three antisera tested. They are representative for the twelve sera which gave signals with both the peptoids and peptides. A `P` represents a peptide sequence which gave the highest 6-8 signals. Likewise, a `*` represents a peptoid sequence which scored in the top 6-10. For the three sera tested, 33/120 sequences are represented which lends support to the premise that there is selective binding shown by the antibody.

[2] = test system: antiserum S259-8 (epitope KDFL); assay: Antibody binding of peptides and peptoids on pins, serum S259-8; parameters: key: A `P` represents a peptide sequence which gave the highest 6-8 signals; a `*` represents a peptoid sequence which scored in the top 6-10; conditions: serum S259-8, epitope KDFL; for antibody binding signal rank, peptide sequence: peptide on pins; for antibody binding signal rank, peptoid sequence: peptoid on pins
Description: as §1

chymotrypsin [3] = molecular target: chymotrypsin (Bos taurus, UniProt P00766); assay: Proteolysis of peptoids and peptides by chymotrypsin; type: in vitro ADME
From the text: (§2) Both compounds were purified to homogeneity by HPLC.

trypsin [4] = molecular target: T1, trypsin (Bos taurus, UniProt P00760); assay: Proteolysis of peptoids and peptides by trypsin; type: in vitro ADME
T1 construct: gene PRSS1
T1 sequence (P00760 24-246): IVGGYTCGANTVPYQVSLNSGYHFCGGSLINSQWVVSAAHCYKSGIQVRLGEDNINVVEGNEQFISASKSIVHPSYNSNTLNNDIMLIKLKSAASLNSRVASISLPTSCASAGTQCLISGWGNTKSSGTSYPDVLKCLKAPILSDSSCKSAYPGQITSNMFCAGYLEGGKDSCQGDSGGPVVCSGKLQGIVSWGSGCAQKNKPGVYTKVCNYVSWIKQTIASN
From the text: as §2

[5] = test system: bacterial dihydrofolate reductases; conditions: stated without a test; cited from earlier work
chymotrypsin [6] = assay: Proteolysis of peptoids and peptides by chymotrypsin; type: in vitro ADME; conditions: chymotrypsin (isolated protease) in Tris buffer, chymotrypsin, 37° C., pH 8.0, read-out: % Area at 280 nm Remaining of Parent Peak by RP-HPLC
From the text: as §2

trypsin [7] = test system: T2, trypsin; assay: Proteolysis of peptoids and peptides by trypsin; type: in vitro ADME; conditions: trypsin (isolated protease) in Tris buffer, trypsin, 37° C., pH 8.0, read-out: % Area at 280 nm Remaining of Parent Peak by RP-HPLC
T2 construct: gene PRSS1
From the text: as §2

[8] = molecular target: T3, dihydrofolate reductase (DHFR) found in Pneumocystis carinii (Pneumocystis carinii, UniProt P16184); conditions: stated without a test; cited from earlier work
T3 sequence (P16184 1-206): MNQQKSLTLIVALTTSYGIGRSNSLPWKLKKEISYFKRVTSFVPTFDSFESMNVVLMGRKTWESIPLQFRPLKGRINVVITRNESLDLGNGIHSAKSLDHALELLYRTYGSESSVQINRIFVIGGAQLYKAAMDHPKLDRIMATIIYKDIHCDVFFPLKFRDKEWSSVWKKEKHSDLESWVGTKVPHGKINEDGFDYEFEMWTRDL

Compound	antibody binding signal rank, peptide sequence [1]	antibody binding signal rank, peptide sequence [2]	further results
KFLDS	P		
DFLKS		P	
CC(C)C[C@H](NC(=O)OCC1c2ccccc2-c2ccccc21)C(=O)N[C@@H](CC(=O)O)C(=O)N[C@@H](Cc1ccccc1)C(=O)N[C@@H](CO)C(=O)N[C@@H](CCCCN)C(=O)NCC(=O)O [PEPTIDE, FMOC-LDFSKG-OH] (Fmoc-LDFSKG-OH)			number of chymotrypsin cleavage sites (chymotrypsin [3]): at least two cleavage sites; cleavage completed at the preferential chymotrypsin site (chymotrypsin [3]; after 10 minutes): ~ 60%; cleavage at the second chymotrypsin site (chymotrypsin [3]; after three hours): not completely cleaved; number of places cleaved by trypsin (trypsin [4]): only one place; time to complete cleavage by trypsin (trypsin [4]; 37° C., pH 8.0): ≤ 5 min
COc1cc(Cc2cnc(N)nc2N)cc(OC)c1OC [Trimethoprim]			inhibition of dihydrofolate reductases [5]: potent inhibitor
LKSFD		P	antibody binding signal rank, peptoid sequence [2]: *
CC(C)CN(CC(=O)N(CC(=O)O)CC(=O)N(CC(=O)N(CCO)CC(=O)N(CCN)CC(=O)NCC(=O)O)Cc1ccccc1)C(=O)OCC1c2ccccc2-c2ccccc21 [PEPTOID, FMOC-L*D*F*S*K*G-OH]			remaining at 5 min, 0.48 mg/mL (chymotrypsin [6]; 5 min): 100%; remaining at 10 min, 0.48 mg/mL (chymotrypsin [6]; 10 min): 100%; remaining at 3 h, 0.48 mg/mL (chymotrypsin [6]; 3 hours): 100%; remaining at 5 min, 0.48 mg/mL (trypsin [7]; 5 min): 100%; remaining at 10 min, 0.48 mg/mL (trypsin [7]; 10 min): 100%; remaining at 3 h, 0.48 mg/mL (trypsin [7]; 3 hours): 100%; change of substrate under proteolysis conditions (trypsin [4]; all reaction conditions (trypsin, chymotrypsin, control)): remained unchanged
COc1cc(Cc2cnc(N)nc2N)cc(OC)c1NC(=O)CCC(=O)O [2,4-diamino-5-[3,5-di-methoxy-4-(3-hydrocarboxy-1-oxopropylamino)benzyl]pyrimidine]			inhibitory activity on DHFR [8]: inhibitory activity specific for the enzyme dihydrofolate reductase (DHFR) found in Pneumocystis carinii
SFLDK		P	
KSDFL		P	
DKFSL	P		

More lines, main results first:

antibody binding signal rank, peptide sequence [1]	antibody binding signal rank, peptide sequence [2]	Compound	further results
P	P	SDFLK	antibody binding signal rank, peptoid sequence [2]: *
P	P	KDFLS	
	P	KLSFD	antibody binding signal rank, peptoid sequence [2]: *
P	P	DFLSK	
P		FSKLD	
P		LKFDS	
P		LFKDS	
	P	SKDFL	
